The target of data set [1] is T1, recombinant human Cox-1 (r-hu Cox1) (Homo sapiens, UniProt P23219).
T1 construct: made in house; host or cells: baculovirus/Sf9 insect cells (microsomes)
The experiment in a line: Recombinant human PGHS-1 enzyme assay (RHUCX1). It counts as biochemical. The note with it: read-out: RHUCX1 % Inh. at Dose. A digest of the protocol:
(§1)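 Recombinant enzyme reaction ran 2.5 minutes at room temperature, then was quenched with HCl and neutralized with NaOH. PGE2 formed with and without drug was quantified by EIA against standards in the same milieu. Percent inhibition versus control mean; IC50 by linear regression.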

Data set [2] concerns the target T2, recombinant human Cox-2 (r-hu Cox-2) (Homo sapiens, UniProt P35354).
T2 construct: made in house; host or cells: baculovirus/Sf9 insect cells (microsomes)
T2 sequence (P35354 18-604): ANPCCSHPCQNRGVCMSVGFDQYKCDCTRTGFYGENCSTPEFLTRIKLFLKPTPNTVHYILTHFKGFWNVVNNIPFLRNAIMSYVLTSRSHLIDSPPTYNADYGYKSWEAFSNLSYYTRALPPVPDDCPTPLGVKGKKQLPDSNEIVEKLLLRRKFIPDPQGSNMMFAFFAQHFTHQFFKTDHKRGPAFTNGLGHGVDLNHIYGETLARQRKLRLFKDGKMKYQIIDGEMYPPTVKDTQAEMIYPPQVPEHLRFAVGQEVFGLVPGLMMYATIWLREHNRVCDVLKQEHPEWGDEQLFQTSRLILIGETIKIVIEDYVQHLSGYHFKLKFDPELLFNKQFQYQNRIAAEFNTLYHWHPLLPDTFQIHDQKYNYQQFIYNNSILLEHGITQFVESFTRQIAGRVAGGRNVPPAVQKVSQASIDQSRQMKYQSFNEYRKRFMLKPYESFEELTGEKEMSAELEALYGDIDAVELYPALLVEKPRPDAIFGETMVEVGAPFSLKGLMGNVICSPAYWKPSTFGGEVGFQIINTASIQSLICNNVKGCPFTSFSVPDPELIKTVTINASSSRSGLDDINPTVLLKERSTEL
The data set is described as follows: Recombinant human PGHS-2 enzyme assay (RHUCX2). To be noted: for IC50: read-out: RHUCX2 IC50 (parenthetical value). It counts as biochemical. A digest of the protocol:
as §1

[3] abbreviates: read-out: RHUCX2 % Inh. at Dose.

Consider 20 compounds from patent publication US20020028938A1, “Prostaglandin endoperoxide H synthase biosynthesis inhibitors” (priority 1997, published 2002).

T1 sequence (P23219 24-599): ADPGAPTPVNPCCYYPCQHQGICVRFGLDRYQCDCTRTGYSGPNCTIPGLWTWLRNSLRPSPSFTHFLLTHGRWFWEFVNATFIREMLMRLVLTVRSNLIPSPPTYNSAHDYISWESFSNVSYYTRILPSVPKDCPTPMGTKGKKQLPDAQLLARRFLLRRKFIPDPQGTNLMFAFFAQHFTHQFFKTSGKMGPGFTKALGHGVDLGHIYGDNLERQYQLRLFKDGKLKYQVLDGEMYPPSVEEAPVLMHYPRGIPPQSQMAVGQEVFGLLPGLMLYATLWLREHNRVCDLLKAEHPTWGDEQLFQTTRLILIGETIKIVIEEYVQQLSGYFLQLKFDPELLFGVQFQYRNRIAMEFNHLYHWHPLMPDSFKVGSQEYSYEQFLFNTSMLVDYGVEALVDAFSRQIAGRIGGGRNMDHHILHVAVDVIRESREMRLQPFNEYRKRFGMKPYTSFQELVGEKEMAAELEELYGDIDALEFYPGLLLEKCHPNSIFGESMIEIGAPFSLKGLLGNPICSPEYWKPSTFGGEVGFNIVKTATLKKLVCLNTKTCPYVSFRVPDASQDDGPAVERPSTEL

Regarding `Cc1cc(-c2c(-c3ccc(S(N)(=O)=O)cc3)cnn(-c3ccc(F)c(F)c3)c2=O)ccc1F` [Example 402, 2-(3,4-Difluorophenyl)-4-(4-fluoro-3-methylphenyl)-5-[4-(aminosulfonyl)phenyl]-3(2H)-pyridazinone], the melting point (usually the temperature of the solid-liquid transition) was in the range of 243 to 245 °C. In addition, in data set [1], the inhibition at 1 µM came out at 89%. For the same compound, the IC50 (as a rule, the point on the concentration scale where inhibition reaches its midpoint) in data set [2] is 221 nM.

As to `CS(=O)(=O)c1ccc(-c2cnn(CC(F)(F)F)c(=O)c2-c2ccc(Cl)c(Cl)c2)cc1` [Example 81, 2-(2,2,2-Trifluoroethyl)-4-(3,4-dichlorophenyl)-5-[4-(methylsulfonyl)phenyl]-3(2H)-pyridazinone], the melting point was in the range of 197 to 198 °C. Besides, the inhibition at 100 µM in data set [1] came out at 6%. For the same compound, in data set [2] (setting [3]), the inhibition at 0.1 µM was determined as 44% and the inhibition at 1 µM was 97%.

As to `CS(=O)(=O)c1ccc(-c2cnn(Cc3ccc(F)cc3F)c(=O)c2-c2ccc(F)cc2)cc1` [Example 22, 2-(2,4-Difluorobenzyl)-4-(4-fluorophenyl)-5-[4-(methylsulfonyl)phenyl]-3(2H)-pyridazinone], the melting point fell in the range of 179 to 182 °C. In addition, in data set [1], the inhibition at 100 µM is 25%. Also, the inhibition at 0.01 µM in data set [2] (setting [3]) was found to be 35%. For the same compound, the inhibition at 0.03 µM in data set [2] (0.03 μM, read-out: RHUCX2 % Inh. at Dose) stood at 91%.

`CC(C)CCOc1c(-c2ccc(S(C)(=O)=O)cc2)cnn(CC(F)(F)F)c1=O` [Example 447, 2-(2,2,2-Trifluoroethyl)-4-(3-methylbutoxy)-5-[4-(methylsulfonyl)phenyl]-3(2H)-pyridazinone]: the melting point is 111 to 113 °C. For the same compound, the inhibition at 100 µM in data set [1] was found to be 0%. In addition, in data set [2] (setting [3]), the inhibition at 0.01 µM was determined as 35%, the inhibition at 0.1 µM turned out to be 57% and the inhibition at 1 µM turned out to be 90%.

Compound `CS(=O)(=O)c1ccc(-c2cnn(-c3cccc(Cl)c3)c(=O)c2CCc2ccccc2)cc1` [Example 372, 2-(3-Chlorophenyl)-4-(phenethyl)-5-[4-(methylsulfonyl)phenyl]-3(2H)-pyridazinone] showed a melting point of 142 to 145 °C. In addition, the inhibition at 100 µM in data set [1] was determined as 0%. Also, in data set [2] (setting [3]), the inhibition at 0.1 µM was determined as 59% and the inhibition at 1 µM came out at 88%. The inhibition at 10 µM in data set [2] (10 μM, read-out: RHUCX2 % Inh. at Dose) is 94%.

Compound `Cc1ccc(-c2c(-c3ccc(S(C)(=O)=O)cc3)cnn(-c3ccc(F)c(F)c3)c2=O)cc1F` [Example 371, 2-(3,4-Difluorophenyl)-4-(3-fluoro-4-methylphenyl)-5-[4-(methylsulfonyl)phenyl]-3(2H)-pyridazinone] came in with a melting point of 204 to 206 °C. For the same compound, in data set [1], the inhibition at 100 µM was 8%. Also, the IC50 in data set [2] is 166 nM.

`CS(=O)(=O)c1ccc(-c2cnn(-c3ccc(F)c(Cl)c3)c(=O)c2Cc2cccc(F)c2)cc1` [Example 249, 2-(3-Chloro-4-fluorophenyl)-4-(3-fluorobenzyl)-5-[4-(methylsulfonyl)phenyl]-3(2H)-pyridazinone] showed a melting point of 101 to 103 °C. For the same compound, the inhibition at 100 µM in data set [1] amounted to 6%. Besides, in data set [2] (setting [3]), the inhibition at 0.01 µM stood at 43%, the inhibition at 0.1 µM was found to be 68% and the inhibition at 1 µM worked out at 98%.

The compound `CC(C)CCCOc1c(-c2ccc(S(C)(=O)=O)cc2)cnn(-c2ccc(F)c(F)c2)c1=O` [Example 437, 2-(3,4-Difluorophenyl)-4-(4-methyl-1-pentyloxy)-5-[4-(methylsulfonyl)phenyl]-3(21)-pyridazinone] gave a melting point of 98 to 99 °C. The inhibition at 100 µM in data set [1] turned out to be 16%. For the same compound, in data set [2], the IC50 stood at 124 nM.

Regarding `CC1(n2ncc(-c3ccc(S(C)(=O)=O)cc3)c(-c3ccc(F)cc3)c2=O)CCCC1` [Example 134], the melting point is 107 to 110 °C. Moreover, in data set [1], the inhibition at 10 µM came out at 35% and the inhibition at 100 µM amounted to 54%. Moreover, the IC50 in data set [2] was 53 nM.

As to `CS(=O)(=O)c1ccc(-c2cnn(-c3cc(F)cc(F)c3)c(=O)c2Oc2ccc(F)cc2)cc1` [Example 111, 2-(3,5-Difluorophenyl)-4-(4-fluorophenoxy)-5-[4-(methylsulfonyl)phenyl]-3(2H)-pyridazinone], the melting point lay in the range of 209 to 211 °C. In data set [1], the inhibition at 100 µM worked out at 13%. Also, in data set [2], the IC50 is 52 nM.

Compound `NS(=O)(=O)c1ccc(-c2cnn(Cc3ccc(F)cc3)c(=O)c2-c2ccc(F)cc2)cc1` [Example 150, 2-(4-Fluorobenzyl)-4-(4-fluorophenyl)-5-[4-(aminosulfonyl)phenyl]-3(2H)-pyridazinone] returned a melting point of 237 to 239 °C. Moreover, in data set [1], the inhibition at 10 µM was 39% and the inhibition at 100 µM is 56%. For the same compound, the inhibition at 0.1 µM in data set [2] (setting [3]) is 100%.

Regarding `Cc1cc(-c2c(-c3ccc(S(C)(=O)=O)cc3)cnn(-c3ccc(F)c(F)c3)c2=O)ccc1F` [Example 235, 2-(3,4-Difluorophenyl)-4-(4-fluoro-3-methylphenyl)-5-[4-(methylsulfonyl)phenyl]-3(2H)-pyridazinone], the melting point was 166 to 168 °C. In data set [1], the inhibition at 100 µM came out at 22%. For the same compound, the half-maximal inhibitory concentration (IC50) in data set [2] was determined as 210 nM.

In the case of `CS(=O)(=O)c1ccc(-c2cnn(Cc3ncc(Cl)s3)c(=O)c2-c2ccc(F)cc2)cc1` [Example 39, 2-(5-Chlorothiazol-2-ylmethyl)-4-(4-fluorophenyl)-5-[4-(methylsulfonyl)phenyl]-3(2H)-pyridazinone], the melting point is 185 to 186 °C. Further, the inhibition at 100 µM in data set [1] was 0%. In addition, in data set [2], the concentration for half-maximal inhibition (IC50) is 440 nM.

`NS(=O)(=O)c1ccc(-c2cnn(Cc3ccc(F)cc3F)c(=O)c2-c2ccc(F)cc2)cc1` [Example 124, 2-(2,4-Difluorobenzl)-4-(4-fluorolphenyl)-5-[4-(aminosulfonyl)phenyl]-3(2H)-pyridazinone] gave a melting point of 236 to 238 °C. The inhibition at 100 µM in data set [1] was 26%. Moreover, the IC50 in data set [2] worked out at 44 nM.

With `CS(=O)(=O)c1ccc(-c2cnn(CC3CC3)c(=O)c2-c2ccc(F)cc2)cc1` [Example 26, 2-(Cyclopropylmethyl)-4-(4-fluorophenyl)-5-[4-(methylsulfonyl)phenyl]-3(2H)-pyridazinone], the melting point is 118 to 121 °C. In addition, the inhibition at 100 µM in data set [1] was 10%. In data set [2] (setting [3]), the inhibition at 0.01 µM amounted to 44%, the inhibition at 0.1 µM was determined as 44% and the inhibition at 1 µM amounted to 91%.

Take `NS(=O)(=O)c1ccc(-c2cnn(Cc3ccc(F)c(F)c3)c(=O)c2-c2ccc(F)cc2)cc1` [Example 127, 2-(3,4-Difluorobenzyl)-4-(4-fluorophenyl)-5-[4-(aminosulfonyl)phenyl]-3(2H)-pyridazinone]: the melting point lay in the range of 253 to 255 °C. In data set [1], the inhibition at 1 µM is 30% and the inhibition at 10 µM was found to be 50%. In data set [2] (setting [3]), the inhibition at 0.1 µM was 51% and the inhibition at 1 µM came out at 74%.

For the compound `C=C(C)CCOc1c(-c2ccc(S(C)(=O)=O)cc2)cnn(-c2ccc(F)cc2)c1=O` [Example 425, 2-(4-Fluorophenyl)-4-(3-methyl-3-butenoxy)-5-[4-(methylsulfonyl)phenyl]-3(2H)-pyridazinone], the melting point lay within 109 to 111 °C. The inhibition at 100 µM in data set [1] worked out at 12%. Also, in data set [2] (setting [3]), the inhibition at 0.01 µM was 31% and the inhibition at 0.1 µM came to 69%.

As for `CC(C)=CCOc1c(-c2ccc(S(C)(=O)=O)cc2)cnn(-c2cccc(Cl)c2)c1=O` [Example 423, 2-(3-Chlorophenyl)-4-(3-methyl-2-butenoxy)-5-[4-(methylsulfonyl)phenyl]-3(2H)-pyridazinone], the melting point fell in the range of 113 to 115 °C. In addition, in data set [1], the inhibition at 100 µM stood at 0%. Also, in data set [2] (setting [3]), the inhibition at 0.01 µM was 36%, the inhibition at 0.1 µM amounted to 68% and the inhibition at 1 µM came out at 87%.

In turn, `CS(=O)(=O)c1ccc(-c2cnn(C3CCC3)c(=O)c2-c2ccc(F)cc2)cc1` [Example 122, 2-Cyclobutyl-4-(4-fluorophenyl)-5-[4-(methylsulfonyl)phenyl]-3(2H)-pyridazinone] registered a melting point of 202 to 203 °C. In addition, in data set [1], the inhibition at 100 µM was determined as 1%. In data set [2], the 50% inhibitory concentration (IC50) is 285 nM.

As for `CS(=O)(=O)c1ccc(-c2cnn(CC(F)(F)F)c(=O)c2C2CCCCC2)cc1` [Example 240, 2-(2,2,2-Trifluoroethyl)-4-cyclohexyl-5-[4-(methylsulfonyl)phenyl]-3(2H)-pyridazinone], the melting point was in the range of 215 to 218 °C. In addition, in data set [1], the inhibition at 100 µM turned out to be 14%. In addition, the concentration for half-maximal inhibition (IC50) in data set [2] was found to be 297 nM.
